*1 amine or outer side, *2 acyl side, *3 side chain or, on linkers, in order; H or OH if unused. Where a SMILES comes first, the peptide text is derived from it. Side-chain parts run from the residue outwards. [ ]: non-standard residue; d: D form. The star is where a group is joined. C20 diacid = O=C(O)CCCCCCCCCCCCCCCCCCC(=O)*; γGlu = O=C(O)[C@H](CCC(=O)[*:2])N[*:1]; NMeI = CC[C@H](C)[C@H](NC)C(=O)O; AEEA = NCCOCCOCC(=O)O
How the values were obtained:
[1] = Association state determination by Sedimentation Velocity Analytical UltraCentrifugation (SV-AUC); assay type: physicochemical
Protocol: SV-AUC was performed at 20° C. using a Beckman Optima with AN 60 Ti rotor and final rotor speed of 60,000 rpm. Peptides were dialyzed into 5 mM phosphate pH 7 or 1× phosphate buffered saline (PBS) pH 7.2. Samples were adjusted to the desired concentration (0.1 mg/mL, 1 mg/mL, or 10 mg/mL) using relevant buffer as needed. Both samples and buffer were passed through […] PVDF centrifugal filter units. The filtered samples were loaded into the sample sectors of the cells; filtered buffer alone was loaded in the reference sector of the cells. A Wavelength Scan was performed as the first step to choose a suitable lambda […] value for the given compound with 1-1.2 OD at the concentration(s) tested; this value was generally between 225 nm and 254 nm and used for Method Scan in the next step. In the Method Scan, both absorbance and interference detection modules were used. Temperature equilibration was set as first stage with 0 rpm rotor speed for 3 hours. Sedimentation velocity was set as second stage with rotor speed at 60,000 rpm. 300 scans with frequency of 60 seconds or 500 scan counts with frequency of 120 seconds were performed at the designated wavelength. Data were analyzed with SEDFIT software wherein a continuous c(s) distribution model was applied; the setting of relevant parameters is shown in Table 4 and Table 5; sedimentation coefficient (s) values were reported in Svedherg units (S).
The experiment to characterize a compound comprising SEQ ID NO:54 was performed at 300 scan counts with frequency of 60 seconds; for all other tested polypeptides, the experiments were performed at 500 scan counts with frequency of 120 seconds.

[2] = In vivo Diet Induced Obesity (DIO) model, chronic dose administration; design: species or system C57BL6 mice; conditions: DIO mice; 30 nmol/kg s.c.; pooled data from four studies; mean
Source text: The DIO model represents a pre-diabetic state that is obese. These animals, although not diabetic, display insulin resistance, dyslipidemia, and hepatic steatosis, all characteristics of metabolic syndrome, after being placed on a high fat (60% Kcal from fat) diet for 12 weeks (Surwit R S et al., Diet-induced type II diabetes in C57BL/6J mice. Diabetes 37(9): 1163-7 (1988)). Assessment of body weight change from start of study, fat mass change from start of study, lean mass change from start of study, and fasting glucose or glucose change from vehicle in same study substantially as set forth below. In the case of SEQ ID NO:55 combined with SEQ ID NO:25, tibialis anterior muscle weight at the end of the study is also reported as a measure of effect on muscle weight.
Male C57BL6 mice 22-24 weeks old (on high fat diet since 6 weeks of age, Jackson Laboratories 3800050; Bar Harbor, ME) are housed 1 per cage and maintained on D12492 chow (60% lard high fat diet: Research diets New Brunswick NJ) for 2 weeks in the vivarium and on a normal light cycle prior to experiment start. Animals were randomized by body weight to treatment groups using block randomization. On day 1 of experiment animals and food were weighed and recorded. Animals were separated in to two equal groups and started on separate days (data combined) to simplify the logistics of the study. Animals are given a single subcutaneous injection (s.c.) of the indicated treatment in 40 mM Tris HCl pH8.0+50 mM D-mannitol+0.02% polysorbate 80 on days 1(start), 4, 7, 10, and 13 of experiment at a volume of 10 ml/kg. […]
From study day 1 to study day 14 the animals were weighed daily prior to dose administration. […] The weight was recorded.
On Study Day 14, the animals were fasted overnight (approximately 16-18 hours) by placing them in a clean cage with a clean wire rack without food but allowed access to water, and on day 15 animals were subjected to fasting blood glucose measurement as follows; the tail of the animal was resected and a blood samples was collected and blood glucose was measured using an Accu-Chek Aviva glucose meter (Roche; Indianapolis, IN). Statistical significance ([…] vs. 0 dose; one way ANOVA Dunnett's post hoc) was calculated using GraphPad Prism software (La Jolla, Ca).
On study day 1 and study day 14 body composition was analyzed using Quantitative Nuclear Magnetic Resonance EchoMRI analyzer (EMR-166-s, EchoMRI; Houston Tx). […] Change in mass is calculated by subtraction of […].
On study day 15, following tail bleed for blood glucose, animals were sacrificed by C02 asphyxiation and the right tibialis anterior muscle was dissected. […] Weight was recorded and, in the case of relative weight, Tibialis anterior weight in milligrams was divided by body weight in grams. […]

[3] = 0.1 mg/mL, 1x PBS, pH 7.2, 20° C.

SMILES: CC[C@H](C)[C@H](NC)C(=O)N[C@H](C(=O)N[C@@H](CC(C)C)C(=O)N[C@@H](CO)C(=O)N[C@@H](CC(C)C)C(=O)N[C@@H](CC(=O)O)C(=O)N[C@H](C(=O)N1CCC[C@H]1C(=O)N[C@H](C(=O)NCC(=O)N[C@@H](CC(C)C)C(=O)N[C@@H](CC(C)C)C(=O)N[C@@H](CCC(N)=O)C(=O)N[C@H](C(=O)N[C@@H](CC(C)C)C(=O)N[C@@H](CC(C)C)C(=O)N[C@@H](CCC(=O)O)C(=O)N[C@@H](CCC(N)=O)C(=O)N[C@@H](CCC(=O)O)C(=O)N[C@@H](CCCCN)C(=O)N[C@@H](CCC(N)=O)C(=O)N[C@@H](CCC(=O)O)C(=O)N[C@@H](CCCCN)C(=O)N[C@@H](CCC(=O)O)C(=O)N[C@@H](CCCCN)C(=O)N[C@@H](CCC(N)=O)C(=O)N[C@@H](CCC(N)=O)C(=O)N[C@@H](C)C(=O)N[C@@H](CCCCNC(=O)COCCOCCNC(=O)COCCOCCNC(=O)CC[C@H](NC(=O)CC[C@H](NC(=O)CCCCCCCCCCCCCCCCCCC(=O)O)C(=O)O)C(=O)O)C(=O)N[C@H](C(=O)N[C@@H](CC(N)=O)C(=O)N[C@@H](C)C(=O)N[C@@H](CCC(N)=O)C(=O)N[C@H](C(=O)N[C@@H](CC(C)C)C(=O)N[C@@H](C)C(=O)N[C@@H](CCC(N)=O)C(=O)N[C@H](C(N)=O)C(C)C)[C@@H](C)CC)[C@@H](C)O)[C@@H](C)CC)[C@@H](C)CC)C(C)C)C(C)C [SEQ ID NO: 54] (H-[NMeI]VLSLDVPIGLLQILLEQEKQEKEKQQAK([AEEA-AEEA-γGlu-γGlu-C20 diacid])TNAQILAQV-NH2)
- Mw (SEDFIT), apparent molecular weight [1, 3]: 38787 Da
- Sedimentation Coefficient [1, 3]: 3.5 S
- Sedimentation Coefficient species (% of total) [1, 3]: 89%
- self-association state from sedimentation coefficients ([1]; 0.1, 1 and 10 mg/mL for SEQ ID NO:54): higher order oligomers were the major species
- Fat mass change [2]: -4.05 g
- body weight change [2]: -3.75 g
- fasting blood glucose (% reduction from vehicle) [2]: 37.01%
- lean mass change [2]: 0.60 g

— patent US20250163119A1, “COMPOUNDS FOR THE TREATMENT OF DIABETES OR OBESITY” (Eli Lilly and Company, priority 2023, published 2025)
